Laboratory results taken from patent publication US11168364B2, “Method and system for sequencing nucleic acids” (priority 2016, dated 2021).
Read-outs that look alike come from different tables or passages of the source.

Tests used:
[1] = molecular target: Klenow (Escherichia coli, UniProt P00582); assay: Label-free optical detection of Klenow binding with magnesium in the examination step (Example 1); details: Polymerase Buffer with 10 mM MgCl2; 150 nM Klenow; 100 μM dNTP; template base T
[2] = molecular target: Klenow (3′→5′ exo(−)) fragment of E. coli DNA polymerase (Escherichia coli, UniProt P00582, D355A/E357A)
[3] = molecular target: T1, HIV reverse transcriptase (Human immunodeficiency virus type 1 group M subtype B, UniProt P03366); assay: Biolayer interferometry binding of HIV RT, dNTP and NNRTI to primer-template biosensor (Example 8); set-up: species or system HIV-1; details: 100 μM dNTP, 100 nM HIV RT, association phase
T1 construct: Recombinant purified HIV reverse transcriptase (HIV RT) was from Worthington Biochemical Corp; purchased Worthington Biochemical Corp (Lakewood, N.J.)
Method: Uncompetitive NNRTI compounds (Pitta et al., J. Enzyme Inhib. Med. Chem. 28(10): 113-22 (2013)), which is incorporated by reference herein in its entirety), were from Epigen Biosciences, Inc. (San Diego, Calif.). NNRTI compounds 7 (3-4-chloro-benzo[d]thiazol-2-yl)-2-(2-chloro-6-fluorophenyl)thiazolidin-4-one) and 18 (3-(6-ethoxy-benzo[d]thiazol-2-yl)-2-(2-chloro-6-fluorophenyl)thiazolidin-4-one) were dissolved in dimethylsulfoxide (DMSO) to concentrations of 25.0 mM and 15.0 mM, respectively. Recombinant purified HIV reverse transcriptase (HIV RT) was from Worthington Biochemical Corp (Lakewood, N.J.). Ultra-pure bovine serum albumin (BSA) was from Ambion (Foster City, Calif.). […] Primer-template duplex was diluted (100 μM) into Annealing Buffer. Immediately before use, HIV Reverse Transcriptase was pre-diluted into Enzyme Diluent (50 mM Tris buffer (pH 8.0), 8 mM MgCl2). […] NNRTI compounds were pre-diluted with DMSO immediately before being spiked into Binding Buffer. Reaction Buffer was Binding Buffer without NNRTI, dNTP or HIV RT enzyme. […] Biosensors were transferred to Binding Buffer containing HIV RT and dCTP+NNRTI (association phase) followed by Reaction Buffer (dCTP incorporation and dissociation phase). […] Cycles of binding and incorporation were repeated multiple times. […]

[4] = test system: Nucleic Acid:Polymerase Complex; assay: Stabilization of nucleic acid:polymerase complex in wash buffer (Example 6); assay type: binding; details: 3.5 mM Sr2+ in wash buffer (LS buffer)
Method: To minimize the possibility of multiple incorporations in a homopolymer region, a wash step can be performed before incorporation. Metal cations such as calcium and strontium can stabilize the polymerase complex (like magnesium), but cannot support catalysis of the phosphodiester bond which results in incorporation of the nucleotide. In this experiment, varying concentrations of SrCl2 (0 mM-14 mM) were added to the wash buffer (LS buffer).

[5] = divalent cation 2.0 mM (CoCl2 1.0 mM) in Binding Buffer, 100 μM dCTP
[6] = divalent cation 2.0 mM (CoCl2 1.0 mM), 100 μM dCTP

Sequence of Klenow (3′→5′ exo(−)) fragment of E. coli DNA polymerase (P00582 324-928 D355A/E357A limits assumed): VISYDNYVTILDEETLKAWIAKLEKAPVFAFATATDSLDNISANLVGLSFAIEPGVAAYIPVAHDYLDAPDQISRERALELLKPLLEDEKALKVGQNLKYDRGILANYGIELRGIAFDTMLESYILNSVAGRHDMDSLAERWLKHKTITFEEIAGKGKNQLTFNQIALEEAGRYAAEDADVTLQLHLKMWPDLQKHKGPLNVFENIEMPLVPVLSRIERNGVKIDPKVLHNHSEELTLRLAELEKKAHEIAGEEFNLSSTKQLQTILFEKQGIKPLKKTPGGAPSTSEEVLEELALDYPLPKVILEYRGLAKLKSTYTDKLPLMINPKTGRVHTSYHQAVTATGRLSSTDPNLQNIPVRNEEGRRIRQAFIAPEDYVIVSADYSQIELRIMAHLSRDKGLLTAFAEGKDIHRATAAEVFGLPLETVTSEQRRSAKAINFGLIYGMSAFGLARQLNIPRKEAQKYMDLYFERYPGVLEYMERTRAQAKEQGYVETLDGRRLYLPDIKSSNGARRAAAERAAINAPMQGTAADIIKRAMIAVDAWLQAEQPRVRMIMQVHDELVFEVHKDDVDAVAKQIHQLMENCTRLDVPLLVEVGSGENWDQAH
Sequence of Klenow (P00582 324-928): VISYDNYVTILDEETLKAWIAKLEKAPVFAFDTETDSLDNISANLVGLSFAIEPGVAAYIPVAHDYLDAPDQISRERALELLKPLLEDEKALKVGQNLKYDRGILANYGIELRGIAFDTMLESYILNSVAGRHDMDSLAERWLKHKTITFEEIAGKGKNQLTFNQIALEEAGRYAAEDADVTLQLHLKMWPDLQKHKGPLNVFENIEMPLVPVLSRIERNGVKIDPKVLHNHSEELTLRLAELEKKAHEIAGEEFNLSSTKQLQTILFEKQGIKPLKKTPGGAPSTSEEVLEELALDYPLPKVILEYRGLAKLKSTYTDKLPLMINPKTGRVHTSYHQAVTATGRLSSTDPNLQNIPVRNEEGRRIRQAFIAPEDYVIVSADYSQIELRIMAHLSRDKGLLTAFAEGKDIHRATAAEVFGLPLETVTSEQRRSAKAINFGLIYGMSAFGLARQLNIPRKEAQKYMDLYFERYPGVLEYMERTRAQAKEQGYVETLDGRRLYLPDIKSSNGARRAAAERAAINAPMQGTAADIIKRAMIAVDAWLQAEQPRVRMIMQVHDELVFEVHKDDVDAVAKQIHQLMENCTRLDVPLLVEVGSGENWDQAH

Nc1ncnc2c1ncn2[C@H]1C[C@H](O)[C@@H](COP(=O)(O)OP(=O)(O)OP(=O)(O)O)O1 [dATP, 2′-deoxyadenosine-5′-triphosphate]
pre-steady state rate constant [1]: 0.0106

[Cl][Co][Cl] [Co2+, cobalt chloride]
binding of Klenow exo(−) and dCTP to biosensor coated with ssDNA primer-template [2, 5]: transient peak | nucleotide incorporation by Klenow exo(−) in the absence of Mg2+ [2, 6]: complete nucleotide incorporation

[Ba+2].[Cl-].[Cl-] [BaCl2, barium chloride]
binding of Klenow exo(−) and dCTP to biosensor coated with ssDNA primer-template [2, 5]: bound strongly

Nc1ccn([C@H]2C[C@H](O)[C@@H](COP(=O)(O)OP(=O)(O)OP(=O)(O)O)O2)c(=O)n1 [dCTP, 2′-deoxycytidine-5′-triphosphate]
pre-steady state rate constant [1]: 0.0084

N.N.O=S(=O)(O)O [ammonium sulfate]
binding of Klenow exo(−) and dCTP to biosensor coated with ssDNA primer-template [2, 5]: bound strongly

[Ca+2].[Cl-].[Cl-] [Ca2+, calcium chloride]
binding of Klenow exo(−) and dCTP to biosensor coated with ssDNA primer-template [2]: transient peak | nucleotide incorporation by Klenow exo(−) in the absence of Mg2+ [2]: complete nucleotide incorporation

O=C1CSC(c2c(F)cccc2Cl)N1c1nc2c(Cl)cccc2s1 (centres unmarked) [NNRTI compound 7]
binding of HIV reverse transcriptase and correct dNTP to biosensor coated with primer-template ([3]; NNRTI 40 μM): distinct peaks for binding

manganese chloride [Mn2+]
binding of Klenow exo(−) and dCTP to biosensor coated with ssDNA primer-template [2, 5]: flat peak | nucleotide incorporation by Klenow exo(−) in the absence of Mg2+ [2, 6]: complete nucleotide incorporation

[Cl-].[Cl-].[Sr+2] [SrCl2, Strontium chloride]
stability of polymerase complex in wash buffer [4]: much more stable | binding of Klenow exo(−) and dCTP to biosensor coated with ssDNA primer-template [2, 5]: bound strongly

[Cl-].[Cl-].[Zn+2] [Zn2+, zinc chloride]
binding of Klenow exo(−) and dCTP to biosensor coated with ssDNA primer-template [2, 5]: transient peak | nucleotide incorporation by Klenow exo(−) in the absence of Mg2+ [2, 6]: complete nucleotide incorporation

[Cl][Cu][Cl] [Cu2+, copper(II) chloride]
binding of Klenow exo(−) and dCTP to biosensor coated with ssDNA primer-template [2]: transient peak

CCOc1ccc2nc(N3C(=O)CSC3c3c(F)cccc3Cl)sc2c1 (centres unmarked) [NNRTI compound 18, 3-(6-ethoxy-benzo[d]thiazol-2-yl)-2-(2-chloro-6-fluorophenyl)thiazolidin-4-one]
binding of HIV reverse transcriptase and correct dNTP to biosensor coated with primer-template ([3]; NNRTI 80 μM): distinct peaks for binding
